Measured values reported in the supplement of paper PMC11208160.

Assay: recombinant barcode read abundance after kanamycin selection (control-corrected) (log10(CPM+1)); higher = more efficient recombination; sequences stand for … in AGTGCAGAGAAAATCGGCCAGTTTTCTCTGCCTGCAGTCCGCATGCCGT…AGATTTATGCAGCGGACTGCCTTTCTCCCAAAGTGATAAACCGGACAGTATCATGGACCGGTTTTCCCGGTAATCCGTATTTGCAAGGTTGGTTTCACT; site = the 11-nt target
Procedure, shortened: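 In E. coli, a pooled library matched targets to IS621 bridge RNA target-binding loops and was introduced alongside a donor plasmid. Cells went onto chloramphenicol/ampicillin/kanamycin with 0.1 mM IPTG or onto chloramphenicol/ampicillin LB agar as control, in duplicate. Recombination efficiency, from recombinant-junction barcodes as counts per million, is averaged and control-corrected. It is reported as log10(CPM+1).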
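Note: IS621 recombinase and bridge RNA in Escherichia coli cells.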

Sequence | recombinant barcode read abundance (log10)
GATCGATCTTGGGTTCTAACCTGTTGCTT (site GATCGATCTAC) | 0
GATCGATCTTGGGTTCTAACCTGTTGCTT (site GATCGATCTAG) | 0.248
GATCGATCTTGGGTTCTAACCTGTTGCTT (site GATCGATCTAT) | 0.0953
GATCGGACTTGGGTTCTAACCTGTTGCGG (site GATCGGACTCC) | 1.69
GATCGGACTTGGGTTCTAACCTGTTGCGG (site GTTCGGACTCC) | 0.596
GATGCACCTTGGGTTCTAACCTGTTGCGG (site GATGCACCTCC) | 2.36
GATGCACCTTGGGTTCTAACCTGTTGCGG (site TGATTGACTAA) | 0.0617
GATGCTACTTGGGTTCTAACCTGTTGCAG (site GATACTACTCT) | 0.0793
GATGCTACTTGGGTTCTAACCTGTTGCAG (site GATGCTACTCT) | 1.04
GATGCTACTTGGGTTCTAACCTGTTGCGG (site GAAGCTACTAC) | 0.128
GATGCTACTTGGGTTCTAACCTGTTGCGG (site GATGCTACTCC) | 2.14
GATGGAGCTTGGGTTCTAACCTGTTGCGG (site GATCGAGCTTC) | 0.198
GATGGAGCTTGGGTTCTAACCTGTTGCGG (site GATGGAGCTCC) | 2.57
GATGGGTCTTGGGTTCTAACCTGTTGCCT (site GATGGGTCTAG) | 1.37
GATGGGTCTTGGGTTCTAACCTGTTGCCT (site GCTGGGTCTAG) | 0.015
GATGGTCCTTGGGTTCTAACCTGTTGCGG (site GACGGTCCTCC) | 0.306
GATGGTCCTTGGGTTCTAACCTGTTGCGG (site GATGGTCCTCC) | 2.34
GATTATACTTGGGTTCTAACCTGTTGCTT (site GATTATACTAA) | 0.0285
GATTATACTTGGGTTCTAACCTGTTGCTT (site TGCGGAGCTCG) | 0.046
GATTCTCCTTGGGTTCTAACCTGTTGCCT (site GATTCTCCTAA) | 0.0949
GATTCTCCTTGGGTTCTAACCTGTTGCCT (site GATTCTCCTAC) | 0.0529
GATTCTCCTTGGGTTCTAACCTGTTGCCT (site GATTCTCCTAG) | 0.0773

Sequence | recombinant barcode read abundance (log10)
GATTCTCCTTGGGTTCTAACCTGTTGCCT (site GATTCTCCTAT) | 0
GATTGTCCTTGGGTTCTAACCTGTTGCTT (site GATTGTCCTAA) | 0.294
GATTGTCCTTGGGTTCTAACCTGTTGCTT (site GGTTGTCCTTA) | 0.23
GCAATCCCTTGGGTTCTAACCTGTTGCTA (site AGAATCCCTTA) | 0.0668
GCAATCCCTTGGGTTCTAACCTGTTGCTA (site GCAATCCCTTA) | 1.48
GCAATTGCTTGGGTTCTAACCTGTTGCCT (site AAGTCGTCTTA) | 0.19
GCAATTGCTTGGGTTCTAACCTGTTGCCT (site GCAATTGCTAG) | 0.458
GCACAAGCTTGGGTTCTAACCTGTTGCCT (site GCACAAGCTAG) | 0.978
GCACAAGCTTGGGTTCTAACCTGTTGCCT (site GCTCTAGCTAG) | 0.091
GCACATACTTGGGTTCTAACCTGTTGCCT (site GCACATACTAG) | 1.2
GCACATACTTGGGTTCTAACCTGTTGCCT (site GCACATTCTAG) | 0
GCACCAACTTGGGTTCTAACCTGTTGCCT (site CCACCGACTAG) | 0.242
GCACCAACTTGGGTTCTAACCTGTTGCCT (site GCACCAACTAG) | 1.12
GCACGACCTTGGGTTCTAACCTGTTGCCT (site GCACAACCTAG) | 0.808
GCACGACCTTGGGTTCTAACCTGTTGCCT (site GCACCACCTAG) | 0.0505
GCACGACCTTGGGTTCTAACCTGTTGCCT (site GCACGACCTAG) | 1.56
GCACGACCTTGGGTTCTAACCTGTTGCCT (site GCACTACCTAG) | 0
GCACGGACTTGGGTTCTAACCTGTTGCAG (site GCAAGGACTCT) | 0.223
GCACGGACTTGGGTTCTAACCTGTTGCAG (site GCACGGACTCT) | 2.35
GCACGGACTTGGGTTCTAACCTGTTGCAG (site GCAGGGACTCT) | 0.164
GCACGGACTTGGGTTCTAACCTGTTGCAG (site GCATGGACTCT) | 0.3
